In patent US6737383B1, “Herbicidal oxadiazolidines” (priority 1999, dated 2004):

Columns and labels:
bedstraw = experiment: Test B pre/postemergence bedstraw; format: in vivo, Galium aparine
Procedure, shortened: (§1)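 Test chemicals in a non-phytotoxic solvent mixture with surfactant were sprayed preemergence onto planted seeds and postemergence onto plants 2 to 18 cm tall (1- to 4-leaf stage). After twelve to sixteen days in a greenhouse, injury was visually rated against untreated controls from 0 (no effect) to 10 (complete control).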

blackgrass = experiment: Test B pre/postemergence blackgrass; format: in vivo, Alopecurus myosuroides
Procedure, shortened: as §1

surinam grass = experiment: Test B pre/postemergence surinam grass; format: in vivo, Brachiaria decumbens
Procedure, shortened: as §1

corn = experiment: Test B pre/postemergence corn; format: in vivo, Zea mays
Procedure, shortened: as §1

crabgrass = experiment: Test B pre/postemergence crabgrass; format: in vivo, Digitaria sanguinalis
Procedure, shortened: as §1

pigweed = experiment: Test B pre/postemergence pigweed; format: in vivo, Amaranthus retroflexus
Procedure, shortened: as §1

rape = experiment: Test B pre/postemergence rape; format: in vivo, Brassica napus
Procedure, shortened: as §1

soybean = experiment: Test B pre/postemergence soybean; format: in vivo, Glycine max
Procedure, shortened: as §1

sugar beet = experiment: Test B pre/postemergence sugar beet; format: in vivo, Beta vulgaris
Procedure, shortened: as §1

velvetleaf = experiment: Test B pre/postemergence velvetleaf; format: in vivo, Abutilon theophrasti
Procedure, shortened: as §1

wheat = experiment: Test B pre/postemergence wheat; format: in vivo, Triticum aestivum
Procedure, shortened: as §1

wild oat = experiment: Test B pre/postemergence wild oat; format: in vivo, Avena fatua
Procedure, shortened: as §1

purple nutsedge = experiment: Test B pre/postemergence purple nutsedge; format: in vivo, Cyperus rotundus
Procedure, shortened: as §1

rice = experiment: Test B flood test rice; format: in vivo, Oryza sativa
Procedure, shortened: (§2)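 Plants were grown to the 2-leaf stage before treatment with test chemical, then held in a greenhouse for twelve to sixteen days. Injury was visually rated against untreated controls on a 0–10 scale, where 0 is no effect and 10 is complete control.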

smallflower flatsedge = experiment: Test B flood test smallflower flatsedge; format: in vivo, Cyperus difformis; conditions: for S. Flatsedge plant response rating: scale of 0 to 10 where 0 is no effect and 10 is complete control
Procedure, shortened: as §2

duck salad = experiment: Test B flood test duck salad; format: in vivo, Heteranthera limosa
Procedure, shortened: as §2

[1] = Postemergence, Rate 125 g/ha, scale of 0 to 10 where 0 is no effect and 10 is complete control
[2] = Preemergence, Rate 31 g/ha, visual rating, scale 0 to 10 (0 no effect, 10 complete control)
[3] = Preemergence, Rate 62 g/ha, scale 0 to 10 (0 no effect, 10 complete control)
[4] = Preemergence, Rate 125 g/ha, 0 is no effect, 10 is complete control
[5] = Preemergence, Rate 250 g/ha, scale 0 to 10, 0 is no effect, 10 is complete control
[6] = Rate 31 g/ha, Postemergence, scale 0 to 10
[7] = Rate 62 g/ha, Postemergence, scale of 0 to 10 where 0 is no effect and 10 is complete control
[8] = Rate 250 g/ha, Postemergence, scale 0 to 10, 0 is no effect, 10 is complete control
[9] = Postemergence (flood test species), Rate 125 g/ha, scale of 0 to 10 where 0 is no effect and 10 is complete control
[10] = Rate 31 g/ha, Postemergence section (flood test species), scale 0 to 10
[11] = Rate 62 g/ha, Postemergence section, flood test species, scale of 0 to 10 where 0 is no effect and 10 is complete control
[12] = Rate 250 g/ha, Postemergence (flood test), scale 0 to 10, 0 is no effect, 10 is complete control

Cc1noc(C)c1-n1c(=O)on(C(=O)N(c2ccc(F)cc2)C(C)C)c1=O [Compound 155]
8: Plant response rating, Crabgrass (crabgrass; [8])
0: Bedstraw plant response rating (bedstraw; [1]) | Bedstraw plant response rating (bedstraw; [2]) | Bedstraw plant response rating (bedstraw; [3]) | Bedstraw plant response rating (0 to 10 scale) (bedstraw; [4]) | Bedstraw plant response rating (bedstraw; [5]) | Bedstraw plant response rating (bedstraw; [6]) | Bedstraw plant response rating (bedstraw; [7]) | Plant response rating, Bedstraw (bedstraw; [8]) | Blackgrass plant response rating (blackgrass; [1]) | Blackgrass plant response rating (blackgrass; [2]) | Blackgrass plant response rating (blackgrass; [3]) | Blackgrass plant response rating (0 to 10 scale) (blackgrass; [4]) | Blackgrass plant response rating (blackgrass; [6]) | Blackgrass plant response rating (blackgrass; [7]) | B. signalgrass plant response rating (surinam grass; [1]) | B. signalgrass plant response rating (surinam grass; [2]) | B. signalgrass plant response rating (surinam grass; [3]) | B. signalgrass plant response rating (0 to 10 scale) (surinam grass; [4]) | B. signalgrass plant response rating (surinam grass; [5]) | B. signalgrass plant response rating (surinam grass; [6]) | B. signalgrass plant response rating (surinam grass; [7]) | Plant response rating, B. signalgrass (surinam grass; [8]) | Corn plant response rating (corn; [1]) | Corn plant response rating (corn; [2]) | Corn plant response rating (corn; [3]) | Corn plant response rating (0 to 10 scale) (corn; [4]) | Corn plant response rating (corn; [5]) | Corn plant response rating (corn; [6]) | Corn plant response rating (corn; [7]) | Crabgrass plant response rating (crabgrass; [2]) | Crabgrass plant response rating (crabgrass; [3]) | Crabgrass plant response rating (0 to 10 scale) (crabgrass; [4]) | Crabgrass plant response rating (crabgrass; [6]) | Redroot pigweed plant response rating (pigweed; [1]) | Redroot pigweed plant response rating (pigweed; [2]) | Redroot pigweed plant response rating (pigweed; [3]) | Redroot pigweed plant response rating (0 to 10 scale) (pigweed; [4]) | Redroot pigweed plant response rating (pigweed; [6]) | Redroot pigweed plant response rating (pigweed; [7]) | Plant response rating, Redroot pigweed (pigweed; [8]) | Rape plant response rating (rape; [1]) | Rape plant response rating (rape; [2]) | Rape plant response rating (rape; [3]) | Rape plant response rating (0 to 10 scale) (rape; [4]) | Rape plant response rating (rape; [5]) | Rape plant response rating (rape; [6]) | Rape plant response rating (rape; [7]) | Plant response rating, Rape (rape; [8]) | Soybean plant response rating (soybean; [2]) | Soybean plant response rating (soybean; [3]) | Soybean plant response rating (0 to 10 scale) (soybean; [4]) | Soybean plant response rating (soybean; [5]) | Sugarbeets plant response rating (sugar beet; [1]) | Sugarbeets plant response rating (sugar beet; [2]) | Sugarbeets plant response rating (sugar beet; [3]) | Sugarbeets plant response rating (0 to 10 scale) (sugar beet; [4]) | Sugarbeets plant response rating (sugar beet; [5]) | Sugarbeets plant response rating (sugar beet; [7]) | Plant response rating, Sugarbeets (sugar beet; [8]) | Velvetleaf plant response rating (velvetleaf; [2]) | Velvetleaf plant response rating (velvetleaf; [3]) | Velvetleaf plant response rating (0 to 10 scale) (velvetleaf; [4]) | Velvetleaf plant response rating (velvetleaf; [5]) | Velvetleaf plant response rating (velvetleaf; [7]) | Plant response rating, Velvetleaf (velvetleaf; [8]) | Wheat plant response rating (wheat; [2]) | Wheat plant response rating (wheat; [3]) | Wheat plant response rating (0 to 10 scale) (wheat; [4]) | Wheat plant response rating (wheat; [5]) | Wheat plant response rating (wheat; [7]) | Plant response rating, Wheat (wheat; [8]) | Wild oats plant response rating (wild oat; [2]) | Wild oats plant response rating (wild oat; [3]) | Wild oats plant response rating (0 to 10 scale) (wild oat; [4]) | Wild oats plant response rating (wild oat; [5]) | Wild oats plant response rating (wild oat; [7]) | Plant response rating, Wild oats (wild oat; [8]) | Nutsedge plant response rating (purple nutsedge; [1]) | Nutsedge plant response rating (purple nutsedge; [2]) | Nutsedge plant response rating (purple nutsedge; [3]) | Nutsedge plant response rating (0 to 10 scale) (purple nutsedge; [4]) | Nutsedge plant response rating (purple nutsedge; [5]) | Nutsedge plant response rating (purple nutsedge; [6]) | Nutsedge plant response rating (purple nutsedge; [7]) | Plant response rating, Nutsedge (purple nutsedge; [8]) | Rice plant response rating (rice; [9]) | Rice plant response rating (rice; [10]) | Rice plant response rating (rice; [11]) | Plant response rating, Rice (rice; [12]) | S. Flatsedge plant response rating (smallflower flatsedge; Postemergence (flood test species), Rate 125 g/ha) | S. Flatsedge plant response rating (smallflower flatsedge; Rate 62 g/ha, Postemergence section, flood test species) | Plant response rating, S. Flatsedge (smallflower flatsedge; [12]) | Ducksalad plant response rating (duck salad; [9]) | Ducksalad plant response rating (duck salad; [10]) | Ducksalad plant response rating (duck salad; [11]) | Plant response rating, Ducksalad (duck salad; [12])
1: Crabgrass plant response rating (crabgrass; [7]) | Soybean plant response rating (soybean; [1]) | Soybean plant response rating (soybean; [7]) | Plant response rating, Soybean (soybean; [8])
6: Crabgrass plant response rating (crabgrass; [5])
3: Redroot pigweed plant response rating (pigweed; [5])
2: Blackgrass plant response rating (blackgrass; [5]) | Plant response rating, Blackgrass (blackgrass; [8]) | Plant response rating, Corn (corn; [8]) | Crabgrass plant response rating (crabgrass; [1])
